Data: patent publication US7670800B2, “Process for the purification of riboflavin” (DSM IP Assets B.V., priority 2003, dated 2010)

How the values were obtained:
[1] = Supersaturation / spontaneous crystallisation in fermentation solution (heat flow calorimeter, turbidity sensor; MethB); type: physicochemical
Description: Within the temperature range of 44° C. to 52° C. the solubility of riboflavin dihydrate and within the temperature range of 44° C. to 59° C. the spontaneous crystallization of riboflavin were investigated. […] In another experiment riboflavin was dissolved at a concentration of 0.7 g l^−1 and at a temperature of 69° C.
The experiments were conducted in a heat flow calorimeter. The process of […] by heating and crystallisation by cooling was monitored by a turbidity sensor. 36 mg of crystals of riboflavin anhydrate I or 60 mg of the crystalline form of riboflavin monohydrate or 120 mg of crystals of riboflavin dihydrate, respectively, were suspended in the fermentation solution and heated to 80° C. at a rate of 0.1° C. per minute. The temperature was held during 60 min. Then the system was cooled again to 20° C. at a rate of 0.1° C./min.
Therefore, another method (MethB) was applied to determine the supersaturation at 39° C.: 420 mg of crystals of riboflavin tetrahydrate were suspended and fully dissolved by heating to 69° C. The concentration of riboflavin was 0.6 mg ml^−1. After cooling again to 39° C., the temperature was kept constant.

[2] = not given; remark: listed apart in the source
[3] = relative humidity of 95%, samples prepared by method of U.S. Pat. No. 2,603,633
Text: A process for the preparation of riboflavin tetrahydrate is described in U.S. Pat. No. 2,603,633. The process basically uses a solvent to rapidly precipitate the riboflavin in order to obtain the desired tetrahydrate “type C” (modification).

[4] = Soluble fraction of riboflavin in induced and uninduced cultures; type: physicochemical; conditions: fermentation culture induced with seed crystals
Description: 500 mg of crystals of riboflavin monohydrate were sterilized at 140° C. for 50 min in an oven, suspended in 5 ml ethanol for 10-200 min, preferably 20-40 min and prior induction 10 ml sterile H2O were added for better handling of the liquid. The suspension was added to the bioreactor after 6 h by a sterile bottle with needle. Crystals of riboflavin dihydrate were formed and in the culture remained monoseptic. From these experiments, it can be concluded that it is possible to direct the crystal modification to riboflavin dihydrate.
In case of the induced cultures this phenomenon is not observed. The solubility of riboflavin (approximately 0.4 gl^−1) is not exceeded. It is controlled by x-ray diffraction whether the crystalline form of the crystals changes during the sterilization procedure.

SMILES: Cc1cc2nc3c(=O)[nH]c(=O)nc-3n(C[C@H](O)[C@H](O)[C@H](O)CO)c2cc1C [riboflavin anhydrate I, reference compound]
- partial transformation into riboflavin dihydrate (stirred slurry only containing riboflavin anhydrate I, 4° C., in 56 days): 80%
- position of the supersaturation line ([1]; 39° C., estimated): above 0.6 g l^−1

SMILES: Cc1cc2nc3c(=O)[nH]c(=O)nc-3n(C[C@H](O)[C@H](O)[C@H](O)CO)c2cc1C [riboflavin anhydrate III]
- range of relative humidity in which the crystalline form was identified ([2]; second sample (type C), DVS): 0% < RH % RH

SMILES: Cc1cc2nc3c(=O)[nH]c(=O)nc-3n(C[C@H](O)[C@H](O)[C@H](O)CO)c2cc1C [riboflavin anhydrate II]
- range of relative humidity at which the crystalline form appeared ([2]; sample modification B/C, DVS with parallel X-ray diffraction, ambient temperature): 0% RH

SMILES: Cc1cc2nc3c(=O)[nH]c(=O)nc-3n(C[C@H](O)[C@H](O)[C@H](O)CO)c2cc1C [riboflavin dihydrate]
- time for complete transformation into riboflavin anhydrate I (80° C.): ≤ 20 s
- partial transformation into riboflavin anhydrate I (stirred slurry of pure riboflavin dihydrate, 23° C., in 11 days, Raman spectroscopy): 80%
- water contained in the dihydrate structure ([2]; relative humidity of 20%, decreasing RH): about 1.3 mol water per mol riboflavin
- water uptake ([2]; relative humidity of about 92%, increasing RH, ambient temperature, sample B/C): 9.57 wt.-%

SMILES: Cc1cc2nc3c(=O)[nH]c(=O)nc-3n(C[C@H](O)[C@H](O)[C@H](O)CO)c2cc1C.O.O.O.O [riboflavin tetrahydrate]
- time to transform into riboflavin dihydrate [3]: about 100 min
- time until crystallisation started ([1]; 0.6 mg ml^−1 riboflavin, dissolved at 69° C., cooled to and kept at 39° C.): 3 h
- temperature of spontaneous crystallisation ([1]; 0.7 mg ml^−1, dissolved at 69° C., cooling): 46 °C

SMILES: Cc1cc2nc3c(=O)[nH]c(=O)nc-3n(C[C@H](O)[C@H](O)[C@H](O)CO)c2cc1C [riboflavin]
- solubility of riboflavin [4]: approximately 0.4 gl^−1
- supersaturation line ([1]; 39° C., MethB, concluded from the experiments): below 0.6 mg ml^−1
